Legend:
[1] = test system: Plasmopara viticola; assay: Preventive grape downy mildew control, detached Emperor leaves (Example 5, Table I); format: in vivo; settings: 6.4 ppm, sprayed before inoculation
[2] = test system: Plasmopara viticola; assay: Eradicant grape downy mildew control, detached Emperor leaves (Example 6, Table I); format: in vivo; settings: 48 h, sprayed 2 days after inoculation, read-out: Eradicative Grape Downy Mildew Control, %
[3] = test system: Plasmopara viticola; assay: Preventive grape downy mildew control, detached Cabernet Sauvignon leaves (Example 7, Table II); format: in vivo
[4] = test system: yeasts responsible for the alcoholic fermentation of grapes; assay: Fermentation test, grape juice (Example 8, Table III); format: cell-based
[5] = test system: Plasmopara viticola; assay: Eradicant downy mildew control on grape cuttings, wettable powder (Example 10, Table V); format: in vivo
Protocol: Three-month-old single-bud Cabernet Sauvignon cuttings (cultivated in gravel) containing 6 to 10 leaves were used as hosts. The undersides of the leaves were sprayed with a sporangial suspension of Plasmopara viticola containing 510,000 conidia per milliliter of water. The inoculated cuttings were placed into a misting chamber. […] Ten to 11 days after the inoculation, the amount of disease control was determined. The percent disease control provided by the test compound was based on the percent disease reduction relative to untreated check cuttings.

[6] = test system: Plasmopara viticola; assay: Residual preventive grape downy mildew control, wettable powder (Example 11, Table VI); format: in vivo; settings: 160 ppm, inoculated 3 days after treatment
Protocol: Three-month-old single-bud Cabernet Sauvignon cuttings (cultivated in gravel), containing 5 to 8 leaves, were used as hosts. […] Three days after fungicide treatment, the undersides of the leaves were sprayed with a sporangial suspension of Plasmopara viticola. The inoculated cuttings were put into a misting chamber. Eight to 10 days after the inoculation, the amount of disease control was determined. The percent disease control provided by the test compound was based on the percent disease reduction relative to untreated check cuttings.

[7] = test system: Plasmopora viticola; assay: Control of foliar grape downy mildew infection by root absorption (Example 12, Table VII); format: in vivo; settings: 50% wettable powder, 50 ppm
Text: Three-month-old single-bud Cabernet Sauvignon cuttings (cultivated in gravel), containing 9 to 12 leaves, were used as hosts. […] The cuttings were then replanted in gravel and put into a misting chamber. At four different times after root treatment, the leaf undersides were sprayed with a sporangial suspension of Plasmopora viticola. The inoculated cuttings were placed into the misting chamber to stimulate disease development. Ten to 12 days after inoculation, the amount of disease control was determined. The percent disease control provided by the test compound was based on the percent disease reduction relative to untreated check cuttings.

[8] = test system: Bremia lactucae; assay: Control of lettuce downy mildew (Example 13, Table VIII); format: in vivo
[9] = test system: Peronospora parasitica ssp. brassicae; assay: Preventive control of cabbage downy mildew (Example 14, Table IX); format: in vivo; settings: for % Control: disease reduction relative to check flat
[10] = test system: Peronospora parasitica ssp. brassicae; assay: Curative control of cabbage downy mildew (Example 14, Table IX); format: in vivo; settings: for % Control: disease reduction relative to check flat
[11] = test system: Pseudoperonospora cubensis; assay: Foliar spray control of cucumber downy mildew (Example 15, Table X); format: in vivo
[12] = test system: Phytophthora cryptogea; assay: Snapdragon crown and root rot control, soil drench (Example 16, Table XI); format: in vivo; settings: soil drench, 100 ppm
[13] = test system: Phytophthora cryptogea; assay: Snapdragon crown and root rot control, foliar spray (Example 16, Table XI); format: in vivo; settings: foliar spray, 100 ppm
[14] = test system: Phytophthora cryptogea; assay: Safflower crown and root rot control by foliar spray (Example 17, Table XII); format: in vivo
[15] = test system: Phytophthora cryptogea; assay: Safflower crown and root rot control by soil drench, P. cryptogea (Example 18, Table XIII); format: in vivo
[16] = test system: P. parasitica; assay: Safflower crown and root rot control by soil drench, P. parasitica (Example 18, Table XIII); format: in vivo
[17] = test system: P. cryptogea; assay: Tobacco crown and root rot control by soil drench, P. cryptogea (Example 19, Table XIV); format: in vivo
[18] = test system: Phytophthora parasitica; assay: Tobacco crown and root rot control by soil drench, P. parasitica (Example 19, Table XIV); format: in vivo
[19] = test system: Phytophthora capsici; assay: Control of Phytophthora rot in sweet peppers (Example 20, Table XV); format: in vivo; settings: 50% wettable powder
Protocol: The pots were then inoculated with the organism by spreading a bed of oats grain (contaminated with the Phytophthora capsici organism) on the soil surface and covering the bed with a 1-cm depth of sterilized soil. The sweet pepper seedlings were then sprayed to runoff with an aqueous suspension of the test compound at various test concentrations (12 pots per concentration level). The amount of disease control was determined by counting the number of dead plants. The percent disease control provided by the test compound was based on the percent disease reduction relative to untreated check seedlings.

[20] = Oral LD50 (rats); settings: rat, in vivo
[21] = Dermal LD50 (rats); settings: rat, in vivo, topical or ocular
[22] = 61.5 ppm, treated 3 days after inoculation
[23] = 62.5 ppm, treated 1 day after inoculation
[24] = 62.5 ppm, treated 2 days after inoculation
[25] = inoculated 1 day after root treatment
[26] = inoculated 5 days after root treatment

## Cc1cccc(C)c1N(C(=O)CCl)C1CCOC1=O (stereo not drawn) [Compound A, 3-(N-chloroacetyl-N-2,6-dimethylphenylamino)-gamma-butyrolactone]
[1]
  pest or weed control at 6.4 ppm: 97%
[2]; 6.4 ppm
  pest or weed control at 6.4 ppm: 99%
[2]; 100 ppm
  pest or weed control at 100 ppm: 99%
[3]; 6.4 ppm
  Percent Control: 100%
[3]; 16 ppm
  Percent Control: 100%
[3]; 40 ppm
  Percent Control: 100%
[4]; 1 ppm, after 1 day
  Cumulative loss of weight due to CO2 escape: 0.9 grams
[4]; 1 ppm, after 2 days
  Cumulative loss of weight due to CO2 escape: 5.0 grams
[4]; 1 ppm, after 3 days
  Cumulative loss of weight due to CO2 escape: 10.5 grams
[4]; 1 ppm, after 4 days
  Cumulative loss of weight due to CO2 escape: 11.3 grams
[4]; 1 ppm, after 7 days
  Cumulative loss of weight due to CO2 escape: 14.2 grams
[4]; 1 ppm, after 8 days
  Cumulative loss of weight due to CO2 escape: 14.5 grams
[4]; 2 ppm, after 1 day
  Cumulative loss of weight due to CO2 escape: 0.8 grams
[4]; 2 ppm, after 2 days
  Cumulative loss of weight due to CO2 escape: 5.2 grams
[4]; 2 ppm, after 3 days
  Cumulative loss of weight due to CO2 escape: 10.4 grams
[4]; 2 ppm, after 4 days
  Cumulative loss of weight due to CO2 escape: 11.1 grams
[4]; 2 ppm, after 7 days
  Cumulative loss of weight due to CO2 escape: 13.4 grams
[4]; 2 ppm, after 8 days
  Cumulative loss of weight due to CO2 escape: 13.7 grams
[4]; 4 ppm, after 1 day
  Cumulative loss of weight due to CO2 escape: 1.0 grams
[4]; 4 ppm, after 2 days
  Cumulative loss of weight due to CO2 escape: 5.2 grams
[4]; 4 ppm, after 3 days
  Cumulative loss of weight due to CO2 escape: 10.4 grams
[4]; 4 ppm, after 4 days
  Cumulative loss of weight due to CO2 escape: 11.1 grams
[4]; 4 ppm, after 7 days
  Cumulative loss of weight due to CO2 escape: 13.1 grams
[4]; 4 ppm, after 8 days
  Cumulative loss of weight due to CO2 escape: 13.3 grams
[4]; 8 ppm, after 1 day
  Cumulative loss of weight due to CO2 escape: 1.0 grams
[4]; 8 ppm, after 2 days
  Cumulative loss of weight due to CO2 escape: 5.4 grams
[4]; 8 ppm, after 3 days
  Cumulative loss of weight due to CO2 escape: 11.0 grams
[4]; 8 ppm, after 4 days
  Cumulative loss of weight due to CO2 escape: 11.8 grams
[4]; 8 ppm, after 7 days
  Cumulative loss of weight due to CO2 escape: 14.5 grams
[4]; 8 ppm, after 8 days
  Cumulative loss of weight due to CO2 escape: 15.2 grams
[5]; [22]
  % Disease Control: 84.7%
  % Leaf Surface Infected: 4.15%
[5]; 62.5 ppm
  % Disease Control: 91.6%
[5]; [23]
  % Disease Control: 97.6%
  % Leaf Surface Infected: 0.51%
[5]; [24]
  % Disease Control: 96.2%
  % Leaf Surface Infected: 0.55%
[5]; 62.5 ppm, treated 5 days after inoculation
  % Leaf Surface Infected: 2.5%
[6]
  % Disease Control: 99.8%
  % Leaf Surface Infected: 0.03%
[7]; [25]
  % Disease Control: 33.5%
  % Leaf Surface Infected: 6.26%
[7]; [26]
  % Disease Control: 98%
  % Leaf Surface Infected: 0.32%
[8]; 25 g active/hl
  % Control: 75.8%
  % Dead Seedlings: 5.9%
[8]; 50 g active/hl
  % Control: 90.6%
  % Dead Seedlings: 1.1%
[8]; 100 g active/hl
  % Control: 95.5%
  % Dead Seedlings: 2.3%
[9]; 20 g a.i./hl
  % Diseased Seedlings: 1.8%
  % Control: 98.2%
[9]; 40 g a.i./hl
  % Diseased Seedlings: 2.2%
  % Control: 97.7%
[9]; 80 g a.i./hl
  % Diseased Seedlings: 1.5%
  % Control: 98.5%
[10]; 20 g a.i./hl
  % Diseased Seedlings: 1.8%
  % Control: 98.2%
[10]; 40 g a.i./hl
  % Diseased Seedlings: 1.0%
  % Control: 99.0%
[10]; 80 g a.i./hl
  % Diseased Seedlings: 0.6%
  % Control: 99.4%
[11]; 16 ppm
  % Control: 63%
[11]; 40 ppm
  % Control: 88%
[11]; 100 ppm
  % Control: 100%
[12]
  % Control: 100%
[13]
  % Control: 97%
[14]; 16 ppm
  % Control: 92%
[14]; 40 ppm
  % Control: 97%
[14]; 100 ppm
  % Control: 100%
[15]; 16 ppm
  % Control, P. Cryptogea: 92%
[15]; 40 ppm
  % Control, P. Cryptogea: 97%
[15]; 100 ppm
  % Control, P. Cryptogea: 100%
[16]; 16 ppm
  % Control, P. Parasitica: 94%
[16]; 40 ppm
  % Control, P. Parasitica: 99%
[16]; 100 ppm
  % Control, P. Parasitica: 100%
[17]; 16 ppm
  % Control, P. Cryptogea: 96%
[17]; 40 ppm
  % Control, P. Cryptogea: 99.8%
[17]; 100 ppm
  % Control, P. Cryptogea: 100%
[18]; 16 ppm
  % Control, P. Parasitica: 96%
[18]; 40 ppm
  % Control, P. Parasitica: 99.8%
[18]; 100 ppm
  % Control, P. Parasitica: 100%
[19]; 100 g/hl
  % Control: 25%
  % Leaf Surface Damaged: 0%
  % of Alive Seedlings: 50%
[19]; 200 g/hl
  % Control: 100%
  % Leaf Surface Damaged: 1.3%
  % of Alive Seedlings: 100%
[19]; 400 g/hl
  % Control: 100%
  % Leaf Surface Damaged: 1.63%
  % of Alive Seedlings: 100%
[20]
  LD50: > 1000 mg/kg
[21]
  LD50: > 2000 mg/kg

Reference: patent publication US4141989A, “Fungicidal 3-(N-chloroacetyl-N-arylamino)-gamma-butyrolactone compositions” (Chevron Research Company, priority 1977, dated 1979)
